≈ marks a conversion by molar mass, not a printed value.
Key:
[1] = Lyophilisation solubility assay (LYSA); assay type: physicochemical; conditions: 0.05 M phosphate buffer, HPLC-UV; for solubility thermodynamic: phosphate buffer, pH 6.5, aqueous buffer, thermodynamic from solid
Method: Lyophilisation Solubility Assay (LYSA):
The solubility of compounds of present invention was assessed by LYSA assay. Samples were prepared in duplicate from 10 mM DMSO stock solutions (20 μL) diluted in 30 μL pure DMSO. After evaporation of DMSO with a centrifugal vacuum evaporator, the residue was dissolved in 0.05 M phosphate buffer (150 μL, pH 6.5), which was stirred for one hour and shook for two hours. After one night, the solution was filtered using a microtiter filter plate. Then the filtrate and its 1/10 dilution were analyzed by HPLC-UV.

A. baumannii (ATCC17978) = assay: 50% growth inhibitory concentration (IC50) determination assay; assay type: cell-based; conditions: Acinetobacter baumannii, ATCC17978, A. baumannii ATCC17978; Iso-Sensitest broth; 0.098 = detection limit
Method: (§1) Stock compounds in DMSO were serially two-fold diluted (range from 50 to 0.097 μM final concentration) in 384 wells microtiter plates and inoculated with 49 μL the bacterial suspension in Iso-Sensitest broth medium to have a final cell concentration of ˜5×10^5 CFU/mL in a final volume/well of 50 μL/well. Microtiter plates were incubated at 35±2° C. Bacterial cell growth was determined with the measurement of optical density at λ=600 nm each 20 minutes over a time course of 16 h. […] GP-6 (Example 4.131 disclosed in WO 2012/125746 A1) was used as the reference compound in Table 6-8. […] The data of IC50 over S. aureus (ATCC29213), K. pneumoniae (ATCC10031), and A. baumannii (ATCC17978) are illustrated in Table 6.

[2] = test system: K. pneumoniae (ATCC10031); assay: as above; assay type: cell-based; conditions: Klebsiella pneumoniae, Iso-Sensitest broth, 0.098 = detection limit
Method: as §1

S. aureus (ATCC29213) = assay: as above; assay type: cell-based; conditions: Staphylococcus aureus, Iso-Sensitest broth, 0.098 = detection limit
Method: as §1

SMILES	solubility thermodynamic [1] [µg/mL]	IC50 (A. baumannii (ATCC17978)) [µM]	Lysa ([1]; pH 6.5) [µg/mL]	IC50 [2] [µM]	IC50 (S. aureus (ATCC29213)) [µM]
CNc1cc(F)c(F)c2c1[nH]c1ncc(-c3cnc4c(c3)c(=O)c(C(=O)O)cn4C)c(N3CCC[C@@H]3CN(C)C)c12 [Example 1.13]	389 (≈ 693 µM)				
CNc1c(F)c(F)cc2c1[nH]c1ncc(-c3cnc4c(c3)c(=O)c(C(=O)O)cn4C)c(N3CC[C@H]4CN(C)CC43)c12 (stereo partly shown) [Example 1.103]	11 (≈ 19.7 µM)	0.13			
CNc1cc(F)c(F)c2c1[nH]c1ncc(-c3cnc4c(c3)c(=O)c(C(=O)O)cn4C)c(N3C[C@H](OC)[C@@H](N(C)C)C3)c12 [Example 1.158]		0.23	49		
CNc1cc(F)c(F)c2c1[nH]c1ncc(-c3cnc4c(c3)c(=O)c(C(=O)O)cn4NC)c(N3CC4OCCN(C)C4C3)c12 (stereo not shown) [Example 1.236]	55 (≈ 93.1 µM)				
CNc1cc(F)c(F)c2c1[nH]c1ncc(-c3cnc4c(c3)c(=O)c(C(=O)O)cn4NC)c(N3CCC4(CCN4C)C3)c12 (stereo not shown) [Example 1.238]		0.308		< 0.098	< 0.098
CNc1cc(F)c(F)c2c1[nH]c1ncc(-c3cnc4c(c3)c(=O)c(C(=O)O)cn4NC)c(N3CCC4(CCCN4C)C3)c12 (stereo not shown) [Example 1.240]		0.151		< 0.098	< 0.098
CNc1cc(F)c(F)c2c1[nH]c1ncc(-c3cnc4c(c3)c(=O)c(C(=O)O)cn4NC)c(N3CCC4CN(C)CCC43)c12 (stereo not shown) [Example 1.244]	254 (≈ 432 µM)				
CNc1cc(F)c(F)c2c1[nH]c1ncc(-c3cnc4c(c3)c(=O)c(C(=O)O)cn4[C@@H](C)CO)c(N3CCO[C@@H](C)C3)c12 [Example 1.250]		0.476		0.14	< 0.098
CNc1cc(F)c(F)c2c1[nH]c1ncc(-c3cnc4c(c3)c(=O)c(C(=O)O)cn4C)c(N3CC4[C@H](CCN4CCO)C3)c12 (stereo partly shown) [Example 1.261]		0.215		< 0.098	< 0.098
CNc1cc(F)c(Cl)c2c1[nH]c1ncc(-c3cnc4c(c3)c(=O)c(C(=O)O)cn4C)c(N3CC[C@H]4CN(C)CC43)c12 (stereo partly shown) [Example 1.270]		0.048		< 0.098	< 0.098
CNc1cc(Cl)cc2c1[nH]c1ncc(-c3cnc4c(c3)c(=O)c(C(=O)O)cn4C)c(N3CC4C(N(C)C)CO[C@@H]4C3)c12 (stereo partly shown) [Example 1.277]		0.48		< 0.098	< 0.098
CNc1cc(F)c(F)c2c1[nH]c1ncc(-c3cnc4c(c3)c(=O)c(C(=O)O)cn4NC)c(N3CC4[C@H](CC[C@H]4N(C)C)C3)c12 (stereo partly shown) [Example 1.284]		0.111		< 0.098	< 0.098
CNc1cc(F)c(F)c2c1[nH]c1ncc(-c3cnc4c(c3)c(=O)c(C(=O)O)cn4CCN(C)C)c(N3CCC(F)(F)C3)c12 [Example 2.02]		0.992		0.167	< 0.098
CNc1cc(F)c(F)c2c1[nH]c1ncc(-c3cnc4c(c3)c(=O)c(C(=O)O)cn4C3CCN(C)C3)c(N3CCC(F)(F)C3)c12 (stereo not shown) [Example 2.03]		0.562		< 0.098	< 0.098
CNc1cc(F)c(F)c2c1[nH]c1ncc(-c3cnc4c(c3)c(=O)c(C(=O)O)cn4C)c(N3CC[C@@H]4CN(C)C[C@@H]43)c12 [Example 3.03B]	180 (≈ 322 µM)				
CNc1cc(F)c(F)c2c1[nH]c1ncc(-c3cnc4c(c3)c(=O)c(C(=O)O)cn4NC)c(N3C[C@H]4OCCN(C)[C@H]4C3)c12 [Example 3.13A]		0.152		< 0.098	< 0.098
CNc1cc(F)c(F)c2c1[nH]c1ncc(-c3cnc4c(c3)c(=O)c(C(=O)O)cn4NC)c(N3C[C@@H]4OCCN(C)[C@@H]4C3)c12 [Example 3.13B]		0.16		< 0.098	< 0.098

SMILES	solubility thermodynamic [1] [µg/mL]	IC50 (A. baumannii (ATCC17978)) [µM]	Lysa ([1]; pH 6.5) [µg/mL]	IC50 [2] [µM]	IC50 (S. aureus (ATCC29213)) [µM]
CNc1cc(F)c(F)c2c1[nH]c1ncc(-c3cnc4c(c3)c(=O)c(C(=O)O)cn4C)c(N3C[C@H]4OCCN(C)[C@H]4C3)c12 [Example 3.14A]		0.075		< 0.098	< 0.098
CNc1cc(F)c(F)c2c1[nH]c1ncc(-c3cnc4c(c3)c(=O)c(C(=O)O)cn4C)c(N3C[C@@H]4OCCN(C)[C@@H]4C3)c12 [Example 3.14B]		0.103		< 0.098	< 0.098
CNc1cc(Cl)cc2c1[nH]c1ncc(-c3cnc4c(c3)c(=O)c(C(=O)O)cn4C)c(N3C[C@H]4CCN(C)[C@H]4C3)c12 [Example 3.15A]		0.208		< 0.098	< 0.098
CNc1cc(Cl)cc2c1[nH]c1ncc(-c3cnc4c(c3)c(=O)c(C(=O)O)cn4C)c(N3C[C@@H]4CCN(C)[C@@H]4C3)c12 [Example 3.15B]		0.094		< 0.098	< 0.098
CNc1cc(F)c(F)c2c1[nH]c1ncc(-c3cnc4c(c3)c(=O)c(C(=O)O)cn4C)c(N3CC[C@@]4(CN(C)CCO4)C3)c12 [Example 3.16A]		0.161		< 0.098	< 0.098
CNc1cc(F)c(F)c2c1[nH]c1ncc(-c3cnc4c(c3)c(=O)c(C(=O)O)cn4C)c(N3CC[C@]4(CN(C)CCO4)C3)c12 [Example 3.16B]		0.19		< 0.098	< 0.098
CNc1cc(F)cc2c1[nH]c1ncc(-c3cnc4c(c3)c(=O)c(C(=O)O)cn4C)c(N3C[C@H]4OCCN(C)[C@H]4C3)c12 [Example 3.22A]		0.363		< 0.098	< 0.098
CNc1cc(F)cc2c1[nH]c1ncc(-c3cnc4c(c3)c(=O)c(C(=O)O)cn4C)c(N3C[C@@H]4OCCN(C)[C@@H]4C3)c12 [Example 3.22B]		0.256		< 0.098	< 0.098
CNc1cc(F)c(F)c2c1[nH]c1ncc(-c3cnc4c(c3)c(=O)c(C(=O)O)cn4C)c(N3C[C@@H]4OCCN(C)[C@H]4C3)c12 [Example 3.24A]		0.315		< 0.098	< 0.098
CNc1cc(F)c(F)c2c1[nH]c1ncc(-c3cnc4c(c3)c(=O)c(C(=O)O)cn4C)c(N3C[C@@H]4[C@@H](C3)OCCN4C)c12 [Example 3.24B]		0.371		< 0.098	< 0.098
CNc1cc(F)c(F)c2c1[nH]c1ncc(-c3cnc4c(c3)c(=O)c(C(=O)O)cn4C)c(N3CCO[C@H](CN(C)C)C3)c12 [Example 4.02A, (R)-6-(4-(2-((dimethylamino)methyl)morpholino)-5,6-difluoro-8-(methylamino)-9H-pyrido[2,3-b]indol-3-yl)-1-methyl-4-oxo-1,4-dihydro-1,8-naphthyridine-3-carboxylic acid]		0.437		< 0.098	0.197
CNc1cc(F)c(F)c2c1[nH]c1ncc(-c3cnc4c(c3)c(=O)c(C(=O)O)cn4C)c(N3CCO[C@@H](CN(C)C)C3)c12 [Example 4.02B, (S)-6-(4-(2-((dimethylamino)methyl)morpholino)-5,6-difluoro-8-(methylamino)-9H-pyrido[2,3-b]indol-3-yl)-1-methyl-4-oxo-1,4-dihydro-1,8-naphthyridine-3-carboxylic acid]		0.408		< 0.098	0.207
CNc1cc(F)c(F)c2c1[nH]c1ncc(-c3cnc4c(c3)c(=O)c(C(=O)O)cn4N)c(N3CC[C@H]4CN(C)CC43)c12 (stereo partly shown) [Example 5.02]	174 (≈ 310 µM)				
CNc1cc(F)c(F)c2c1[nH]c1ncc(-c3cnc4c(c3)c(=O)c(C(=O)O)cn4NCC(F)(F)F)c(N(C)C)c12 [Example 5.03, 6-(4-(dimethylamino)-5,6-difluoro-8-(methylamino)-9H-pyrido[2,3-b]indol-3-yl)-4-oxo-1-((2,2,2-trifluoroethyl)amino)-1,4-dihydro-1,8-naphthyridine-3-carboxylic acid]		0.745		0.275	< 0.098
CNc1cc(F)cc2c1[nH]c1ncc(-c3cnc4c(c3)c(=O)c(C(=O)O)cn4N)c(N3CC[C@H]4CN(C)CC43)c12 (stereo partly shown) [Example 5.05]	250 (≈ 461 µM)				
CNc1cc(F)c(F)c2c1[nH]c1ncc(-c3cnc4c(c3)c(=O)c(C(=O)O)cn4C)c(N3CCC4(C[C@@H]4N(C)C)C3)c12 (stereo partly drawn) [Example 6.01, 6-(4-(trans-2-(Dimethylamino)-5-azaspiro[2.4]heptan-5-yl)-5,6-difluoro-8-(methylamino)-9H-pyrido[2,3-b]indol-3-yl)-1-methyl-4-oxo-1,4-dihydro-1,8-naphthyridine-3-carboxylic acid]		0.257		0.118	< 0.098
CNc1cc(F)c(F)c2c1[nH]c1ncc(-c3cnc4c(c3)c(=O)c(C(=O)O)cn4C)c(N3CCC4(C[C@H]4N(C)C)C3)c12 (stereo partly drawn) [Example 6.02, 6-(4-cis-(2-(dimethylamino)-5-azaspiro[2.4]heptan-5-yl)-5,6-difluoro-8-(methylamino)-9H-pyrido[2,3-b]indol-3-yl)-1-methyl-4-oxo-1,4-dihydro-1,8-naphthyridine-3-carboxylic acid]		0.389		0.166	< 0.098
